Data published in patent US11505558B1, “Antiviral heterocyclic compounds” (Enanta Pharmaceuticals, Inc., priority 2019, dated 2022).

Tests used:
[1] = test system: recombinant HMPV CAN97-83 (MPV-GFP1); experiment: HMPV antiviral assay (MPV-GFP1 eGFP fluorescence in Vero E6 cells); assay type: cell-based; settings: human metapneumovirus, Vero C1008, 120 h, read-out: HMPV EC50
Outline: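 Vero E6 cells in serum-free OptiMEM with 0.5 μg/mL TPCK-trypsin infected with eGFP-expressing HMPV CAN97-83 (MPV-GFP1) at MOI 0.05. 8-point […] ½-step dilutions from 8 or 2 μM, 0.5% DMSO, 5 days at 32 °C. eGFP fluorescence normalized to infected untreated wells; EC50 from four-parameter logistic fit.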

[2] = test system: genotype A, "Long" strain RSV; experiment: RSV-A assay (CPE, ATPlite readout in Hep-2 cells); assay type: cell-based; settings: human respiratory syncytial virus, HEp-2, Hep-2 cells, genotype A "Long" strain RSV, MOI 0.1; read-out: Human RSV-A (“Long” strain) EC50
Outline: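 Hep-2 cells (8,000/well) received 2-fold serial compound dilutions in duplicate and RSV Long strain at MOI 0.1. After 5 days' incubation, cell health was read as ATP by ATPlite luminescence, with virus-only and uninfected controls defining max and minimum CPE; EC50 reported.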

Structure (SMILES)	EC50 [1] [nM]	EC50 [2] [nM]
Cc1cnc2c(Nc3cnccn3)cc(C(=O)NC[C@](O)(c3cc4c(c(-c5ccc(F)cc5)n3)OC[C@]4(C)C(N)=O)C(F)(F)F)cc2c1 [Example 547]	> 500	< 200
Cc1cnc2c(OCC(N)=O)cc(C(=O)NC[C@](O)(c3cc4c(c(-c5ccc(F)cc5)n3)OC[C@]4(C)C(N)=O)C(F)(F)F)cc2c1 [Example 366]	> 500	< 200
COc1cc(C(=O)NC[C@](O)(c2cc3c(c(-c4ccc(F)cc4)n2)OCC3(F)C(N)=O)C(F)(F)F)cc2cn(C3CC3)nc12 (some centres unmarked) [Example 676]	< 500	< 200
C[C@]1(C(=O)NCCO)COc2c1cc([C@@](O)(CNC(=O)c1cc(OC3CC3)c3ncccc3c1)C(F)(F)F)nc2-c1ccc(F)cc1 [Example 465]	< 500	< 200
COc1cc(C(=O)NC[C@](O)(c2cc3c(c(-c4ccc(F)cc4)n2)OC[C@]3(C)C(N)=O)C2CC2)cc2cc(Cl)cnc12 [Example 528]	< 500	< 200
COc1nccc(C(=O)NC[C@](O)(c2cc3c(c(-c4ccc(F)cc4)n2)OC[C@]3(C)CNCC2CC2)C(F)(F)F)n1 [Example 34]	> 500	> 200
CC(C)Oc1cc(C(=O)NC[C@](O)(c2cc3c(c(-c4ccc(F)cc4)n2)OC[C@]3(C)C(N)=O)C(F)(F)F)cc2sc(N)nc12 [Example 538]	> 500	< 200
COc1cc(C(=O)NC[C@](O)(c2cc3c(c(-c4ccc(F)cc4)n2)OC[C@]3(C)C(N)=O)C(F)(F)F)cc2ccccc12 [Example 69]	> 500	> 200
C[C@@H](O)COc1ccc(C(=O)NC[C@](O)(c2cc3c(c(-c4ccc(F)cc4)n2)OC[C@]3(C)C(N)=O)C(F)(F)F)cc1OC1CC1 [Example 289]	> 500	< 200
COc1cc(C(=O)NC[C@](O)(c2cc3c(c(-c4ccc(F)c(Cl)c4)n2)OC[C@]3(C)C(N)=O)C(F)(F)F)cc2cc(C)c(C)nc12 [Example 534]	< 500	< 200
C[C@]1(C(N)=O)COc2c1cc([C@@](O)(CNC(=O)c1cc(OCc3ncco3)c3ncccc3c1)C(F)(F)F)nc2-c1ccc(F)cc1 [Example 390]	> 500	< 200
COc1cc(C(=O)NC[C@](O)(c2cc3c(c(-c4ccc(F)c(F)c4)n2)OC[C@]3(C)C(N)=O)C(F)(F)F)ccc1OC1CC1 [Example 89]	< 500	< 200
Cc1cnc2c(NC(=O)NC3CC3)cc(C(=O)NC[C@](O)(c3cc4c(c(-c5ccc(F)cc5)n3)OC[C@]4(C)C(N)=O)C(F)(F)F)cc2c1 [Example 417]	< 500	< 200
Cc1cnc2c(NC(=O)NCC(C)(C)F)cc(C(=O)NC[C@](O)(c3cc4c(c(-c5ccc(F)cc5)n3)OC[C@]4(C)C(N)=O)C(F)(F)F)cc2c1 [Example 622]	< 500	< 200
C[C@]1(C(N)=O)COc2c1cc([C@@](O)(CNC(=O)c1cc(OC(F)F)c3nc(N)sc3c1)C1CC1)nc2-c1ccc(F)cc1 [Example 539]	< 500	< 200
COc1cc(C(=O)NC[C@](O)(c2cc3c(c(-c4ccc(F)c(Cl)c4)n2)OC[C@]3(C)C(N)=O)C(F)(F)F)cc2cc(C3CC3)cnc12 [Example 532]	< 500	< 200
COc1cc(C(=O)NC[C@](O)(c2cc3c(c(-c4ccc(F)cc4)n2)OC[C@]3(C)C(=O)NCC(C)(C)O)C(F)(F)F)cc2cn(C)nc12 [Example 635]	< 500	< 200
C[C@]1(C(N)=O)COc2c1cc([C@](O)(CNC(=O)c1cc(OC3CC3)c3ncccc3c1)C(F)(F)F)nc2-c1ccc(F)c(F)c1 [Example 80]	< 500	< 200
C[C@]1(C(N)=O)COc2c1cc([C@@](O)(CNC(=O)c1ccc3cnccc3c1)C(F)(F)F)nc2-c1ccc(F)cc1 [Example 232]	> 500	< 200
C[C@]1(C(N)=O)COc2c1cc([C@@](O)(CNC(=O)c1cc(OC3CC3)c3ncccc3c1)C1CC1)nc2-c1ccc(F)cc1 [Example 280]	< 500	< 200
C[C@]1(C(N)=O)COc2c1cc([C@@](O)(CNC(=O)c1cc(Nc3ncncn3)c3ncccc3c1)C(F)(F)F)nc2-c1ccc(F)cc1 [Example 340]	> 500	< 200
CC(C)(O)CNC(=O)[C@@]1(C)COc2c1cc([C@@](O)(CNC(=O)c1cc(OC3CC3)c3ncccc3c1)C(F)(F)F)nc2-c1ccc(F)cc1 [Example 484]	< 500	< 200
CCCNC(=O)COc1cc(C(=O)NC[C@](O)(c2cc3c(c(-c4ccc(F)cc4)n2)OC[C@]3(C)C(N)=O)C(F)(F)F)cc2cccnc12 [Example 374]	< 500	< 200

Structure (SMILES)	EC50 [1] [nM]	EC50 [2] [nM]
C[C@]1(C(N)=O)COc2c1cc([C@@](O)(CNC(=O)c1cc(OCC(N)=O)c3ncccc3c1)C(F)(F)F)nc2-c1ccc(F)cc1 [Example 364]	> 500	< 200
C[C@@H](O)COc1cc(C(=O)NC[C@](O)(c2cc3c(c(-c4ccc(F)cc4)n2)OC[C@]3(C)C(N)=O)C(F)(F)F)cc2cccnc12 [Example 287]	> 500	> 200
C[C@]1(C(N)=O)COc2c1cc([C@@](O)(CNC(=O)c1ccc(OC3CC3)c(-c3ncccn3)c1)C(F)(F)F)nc2-c1ccc(F)cc1 [Example 127]	> 500	< 200
COc1cc(C(=O)NC[C@](O)(c2cc3c(c(-c4ccc(F)cc4)n2)OC[C@]3(C)C(N)=O)C(F)(F)F)cc2cc(F)cnc12 [Example 518]	> 500	< 200
Cc1cnc2c(NC(=O)NCC(C)(C)O)cc(C(=O)NC[C@](O)(c3cc4c(c(-c5ccc(F)cc5)n3)OC[C@]4(C)C(N)=O)C(F)(F)F)cc2c1 [Example 551]	> 500	< 200
C[C@]1(C(N)=O)COc2c1cc([C@@](O)(CNC(=O)c1cc(OC3CC3)c3nc(CO)ccc3c1)C(F)(F)F)nc2-c1ccc(F)cc1 [Example 406]	> 500	< 200
C[C@]1(C(N)=O)COc2c1cc([C@@](O)(CNC(=O)c1cc(-c3cccnc3)c3ncccc3c1)C(F)(F)F)nc2-c1ccc(F)cc1 [Example 350]	> 500	< 200
Cc1cnc2c(NC(=O)C3(F)CC3)cc(C(=O)NC[C@](O)(c3cc4c(c(-c5ccc(F)cc5)n3)OC[C@]4(C)C(N)=O)C(F)(F)F)cc2c1 [Example 553]	< 500	< 200
C[C@]1(C(N)=O)COc2c1cc([C@@](O)(CNC(=O)c1ccc3nnccc3c1)C(F)(F)F)nc2-c1ccc(F)cc1 [Example 230]	> 500	< 200
COc1cc(C(=O)NC[C@](O)(c2cc3c(c(-c4ccc(F)cc4)n2)OC[C@]3(C)C(=O)NC2(C#N)CC2)C(F)(F)F)cc2cccnc12 [Example 451]	< 500	< 200
Cc1ncc(-c2cc(C(=O)NC[C@](O)(c3cc4c(c(-c5ccc(F)cc5)n3)OC[C@]4(C)C(N)=O)C(F)(F)F)ccc2OC2CC2)cn1 [Example 137]	< 500	< 200
C[C@]1(C(N)=O)COc2c1cc([C@@](O)(CNC(=O)c1cc(Nc3cncnc3)c3ncccc3c1)C(F)(F)F)nc2-c1ccc(F)cc1 [Example 342]	> 500	< 200
CCNC(=O)[C@@]1(C)COc2c1cc([C@@](O)(CNC(=O)c1cc(OC)c3ncccc3c1)C(F)(F)F)nc2-c1ccc(F)cc1 [Example 56]	< 500	< 200
Cc1ncc(-c2cc(C(=O)NC[C@](O)(c3cc4c(c(-c5ccc(F)cc5)n3)OC[C@]4(C)C(N)=O)C(F)(F)F)ccc2OC2CC2)s1 [Example 126]	> 500	< 200
C[C@]1(C(=O)NCCCO)COc2c1cc([C@@](O)(CNC(=O)c1cc(OC3CC3)c3ncccc3c1)C(F)(F)F)nc2-c1ccc(F)cc1 [Example 485]	< 500	< 200
COc1cc(C(=O)NC[C@](O)(c2cc3c(c(-c4ccc(F)cc4)n2)OC[C@]3(C)C(N)=O)C2CC2)cc2cc(C(F)(F)F)cnc12 [Example 535]	< 500	< 200
C[C@]1(C(N)=O)COc2c1cc([C@@](O)(CNC(=O)c1cc(OC3CC3)c3ncc(Cl)cc3c1)C1CC1)nc2-c1ccc(F)c(Cl)c1 [Example 531]	< 500	< 200
COc1cc(C(=O)NC[C@](O)(c2cc3c(c(-c4ccc(F)c(Cl)c4)n2)OC[C@]3(C)C(N)=O)C(F)(F)F)cc2sc(N)nc12 [Example 433]	< 500	< 200
Cc1cnc2c(O)cc(C(=O)NC[C@](O)(c3cc4c(c(-c5ccc(F)cc5)n3)OC[C@]4(C)C(N)=O)C(F)(F)F)cc2c1 [Example 252]	> 500	< 200
Cc1cnc2c(NC(=O)C3(C)CC3)cc(C(=O)NC[C@](O)(c3cc4c(c(-c5ccc(F)cc5)n3)OC[C@]4(C)C(N)=O)C(F)(F)F)cc2c1 [Example 552]	< 500	< 200
Cc1nc2ccc(C(=O)NC[C@](O)(c3cc4c(c(-c5ccc(F)cc5)n3)OC[C@]4(C)C(N)=O)C(F)(F)F)cc2s1 [Example 430]	< 500	< 200
COc1cc(C(=O)NC[C@](O)(c2cc3c(c(-c4ccc(F)cc4)n2)OC[C@]3(C)C(N)=O)C(F)(F)F)ccc1-c1ocnc1C [Example 183]	> 500	< 200
Cc1cnc2c(NC(=O)c3coc(C)n3)cc(C(=O)NC[C@](O)(c3cc4c(c(-c5ccc(F)cc5)n3)OC[C@]4(C)C(N)=O)C(F)(F)F)cc2c1 [Example 418]	< 500	< 200
